Measured values: patent publication US8471061B2 (priority 2004, dated 2013)
Where “and” joins values, the source holds several entries; their conditions need not be identical. Identical values can stand only once. Like-named read-outs stand apart in the source and are kept apart here.

Experiments:
[1] = Acidity measurement of aqueous solutions with a pH meter; assay type: physicochemical; conditions: 1 to 1000 mM, 25° C., same concentration
Experimental: Aqueous 5-aminolevulinic acid phosphate solutions and aqueous 5-aminolevulinic acid hydrochloride solutions having a concentration of from 1 to 1000 mM were respectively prepared, and their acidity was measured at 25° C. using a pH meter.

[2] = test system: Salmonella typhimurium TA 100, TA 98, TA 1535 and TA 1537 and Escherichia coli WP2 uvrA; test: Mutagenicity test (back mutation test) using microorganisms, all strains; assay type: cell-based
Experimental: A test was carried out in accordance with the “Standard of Mutagenicity Tests Using Microorganisms” (Ministry of Labor Notification No. 77, 1988) (partial revision by Ministry of Labor Notification No. 67, 1997) and “Regarding the Tests Concerning Novel Chemical Substances and the like” (dated Nov. 21, 2003: Yaku-Shoku-Hatsu No. 1121002, 2003.11.13 Sei-Kyoku, No. 2, Kan-Ho-Ki-Hatsu No. 031121002). […] In the measurement, an inner area of about 80 mm in diameter of a plate of 86 mm in diameter (84 mm in inner diameter) was measured using an automatic colony analyzer (CA-11: manufactured by System Science), and calculated by carrying out area correction and counting loss correction using a personal computer. However, since reliability of the automatic colony analyzer is reduced when the number of colonies is 1,500 or more, 5 points in the plate were manually measured under the stereoscopic microscope to carry out area correction of the average value. […]

[3] = test system: Escherichia coli WP2 uvrA; test: Back mutation test, WP2uvrA; assay type: cell-based; conditions: for number of back mutation, single plates: Phosphate
Experimental: A test was carried out in accordance with the “Standard of Mutagenicity Tests Using Microorganisms” (Ministry of Labor Notification No. 77, 1988) (partial revision by Ministry of Labor Notification No. 67, 1997) and “Regarding the Tests Concerning Novel Chemical Substances and the like” (dated Nov. 21, 2003: Yaku-Shoku-Hatsu No. 1121002, 2003.11.13 Sei-Kyoku, No. 2, Kan-Ho-Ki-Hatsu No. 031121002). To 0.1 ml of a solution prepared by dissolving 5% (w/v) of 5-aminolevulinic acid phosphate in distilled water (Wako Pure Chemical Industries), 0.5 ml of 0.1 M sodium-phosphate buffer (pH 7.4) (0.5 ml S9 mix in the case of metabolism activation test) was added, and 0.1 ml of each test strain suspension (5 strains of histidine-less Salmonella typhimurium TA 100, TA 98, TA 1535 and TA 1537 and tryptophan-less Escherichia coli WP2 uvrA were used (Japan Bioassay Research Center)) was further added thereto, followed by pre-incubation at 37° C. for 20 minutes while shaking. After completion of the culturing, 2.0 ml of top agar kept at 45° C. in advance was added thereto and layered on a minimum glucose agar plate medium. In this case, 2 plates were arranged for each dosage. However, 3 plates were arranged for a solvent control (negative control). […] In the measurement, an inner area of about 80 mm in diameter of a plate of 86 mm in diameter (84 mm in inner diameter) was measured using an automatic colony analyzer (CA-11: manufactured by System Science), and calculated by carrying out area correction and counting loss correction using a personal computer. However, since reliability of the automatic colony analyzer is reduced when the number of colonies is 1,500 or more, 5 points in the plate were manually measured under the stereoscopic microscope to carry out area correction of the average value. A dosage setting test was carried out on 7 dosages diluted at a common ratio of 4, using a dosage of 5,000 μg/plate as the maximum which is the maximum dosage defined by the guideline. […] Growth inhibition of the strains by this substance to be tested was not found. […] Thus, this test was carried out by setting 5 dosages diluted at a common ratio of 2, using a dosage of 5,000 μg/plate as the maximum which is the maximum dosage defined by the guideline.

[4] = test system: Salmonella typhimurium TA 1535; conditions: TA1535
Experimental: (§1) A test was carried out in accordance with the “Standard of Mutagenicity Tests Using Microorganisms” (Ministry of Labor Notification No. 77, 1988) (partial revision by Ministry of Labor Notification No. 67, 1997) and “Regarding the Tests Concerning Novel Chemical Substances and the like” (dated Nov. 21, 2003: Yaku-Shoku-Hatsu No. 1121002, 2003.11.13 Sei-Kyoku, No. 2, Kan-Ho-Ki-Hatsu No. 031121002). To 0.1 ml of a solution prepared by dissolving 5% (w/v) of 5-aminolevulinic acid phosphate in distilled water (Wako Pure Chemical Industries), 0.5 ml of 0.1 M sodium-phosphate buffer (pH 7.4) (0.5 ml S9 mix in the case of metabolism activation test) was added, and 0.1 ml of each test strain suspension (5 strains of histidine-less Salmonella typhimurium TA 100, TA 98, TA 1535 and TA 1537 and tryptophan-less Escherichia coli WP2 uvrA were used (Japan Bioassay Research Center)) was further added thereto, followed by pre-incubation at 37° C. for 20 minutes while shaking. After completion of the culturing, 2.0 ml of top agar kept at 45° C. in advance was added thereto and layered on a minimum glucose agar plate medium. In this case, 2 plates were arranged for each dosage. However, 3 plates were arranged for a solvent control (negative control). […] In the measurement, an inner area of about 80 mm in diameter of a plate of 86 mm in diameter (84 mm in inner diameter) was measured using an automatic colony analyzer (CA-11: manufactured by System Science), and calculated by carrying out area correction and counting loss correction using a personal computer. However, since reliability of the automatic colony analyzer is reduced when the number of colonies is 1,500 or more, 5 points in the plate were manually measured under the stereoscopic microscope to carry out area correction of the average value. A dosage setting test was carried out on 7 dosages diluted at a common ratio of 4, using a dosage of 5,000 μg/plate as the maximum which is the maximum dosage defined by the guideline.

[5] = test system: Salmonella typhimurium TA 1537; conditions: TA1537
Experimental: as §1

[6] = S9 Mix(−), 1250 μg/plate, Phosphate

## NCC(=O)CCC(=O)O.O=P(O)(O)O [5-aminolevulinic acid phosphate, 5-aminolevulinic Acid Phosphate]
[1]
  acidity of aqueous solution (FIG. 1): lower than that of the aqueous 5-aminolevulinic acid hydrochloride solution
[2]
  mutation inducing ability: does not have the mutation inducing ability
[3]; S9 Mix(+), 313 μg/plate
  number of back mutation, mean (in parentheses): (24) colonies/plate
  number of back mutation, single plates: 31 colonies/plate and 17 colonies/plate
[3]; S9 Mix(+), 625 μg/plate
  number of back mutation, mean (in parentheses): (32) colonies/plate
  number of back mutation, single plates: 40 colonies/plate and 24 colonies/plate
[3]; S9 Mix(+), 1250 μg/plate
  number of back mutation, mean (in parentheses): (32) colonies/plate
  number of back mutation, single plates: 34 colonies/plate and 29 colonies/plate
[3]; S9 Mix(+), 2500 μg/plate
  number of back mutation, mean (in parentheses): (25) colonies/plate
  number of back mutation, single plates: 23 colonies/plate and 27 colonies/plate
[3]; S9 Mix(+), 5000 μg/plate
  number of back mutation, mean (in parentheses): (28) colonies/plate
  number of back mutation, single plates: 25 colonies/plate and 30 colonies/plate
[3]; S9 Mix(−), 313 μg/plate
  number of back mutation, mean (in parentheses): (31) colonies/plate
  number of back mutation, single plates: 25 colonies/plate and 36 colonies/plate
[3]; S9 Mix(−), 625 μg/plate
  number of back mutation, mean (in parentheses): (28) colonies/plate
  number of back mutation, single plates: 27 colonies/plate and 28 colonies/plate
[3]; S9 Mix(−), 1250 μg/plate
  number of back mutation, mean (in parentheses): (31) colonies/plate
  number of back mutation, single plates: 28 colonies/plate and 33 colonies/plate
[3]; S9 Mix(−), 2500 μg/plate
  number of back mutation, mean (in parentheses): (27) colonies/plate
  number of back mutation, single plates: 25 colonies/plate and 28 colonies/plate
[3]; S9 Mix(−), 5000 μg/plate
  number of back mutation, mean (in parentheses): (31) colonies/plate
  number of back mutation, single plates: 25 colonies/plate and 36 colonies/plate
[4]; S9 Mix(+), 313 μg/plate
  number of back mutation, mean (in parentheses): (11) colonies/plate
[4]; S9 Mix(+), 313 μg/plate, Phosphate
  number of back mutation, single plates: 11 colonies/plate and 10 colonies/plate
[4]; S9 Mix(+), 625 μg/plate
  number of back mutation, mean (in parentheses): (10) colonies/plate
[4]; S9 Mix(+), 1250 μg/plate
  number of back mutation, mean (in parentheses): (12) colonies/plate
[4]; S9 Mix(+), 1250 μg/plate, Phosphate
  number of back mutation, single plates: 10 colonies/plate and 14 colonies/plate
[4]; S9 Mix(+), 2500 μg/plate
  number of back mutation, mean (in parentheses): (8) colonies/plate
  number of back mutation, single plates: 8 colonies/plate
[4]; S9 Mix(+), 5000 μg/plate
  number of back mutation, mean (in parentheses): (7) colonies/plate
[4]; S9 Mix(+), 5000 μg/plate, Phosphate
  number of back mutation, single plates: 6 colonies/plate and 8 colonies/plate
[4]; S9 Mix(−), 313 μg/plate
  number of back mutation, mean (in parentheses): (10) colonies/plate
  number of back mutation, single plates: 10 colonies/plate
[4]; S9 Mix(−), 625 μg/plate
  number of back mutation, mean (in parentheses): (10) colonies/plate
[4]; S9 Mix(−), 1250 μg/plate
  number of back mutation, mean (in parentheses): (10) colonies/plate
[4]; [6]
  number of back mutation, single plates: 8 colonies/plate and 11 colonies/plate
[4]; S9 Mix(−), 2500 μg/plate
  number of back mutation, mean (in parentheses): (6) colonies/plate
[4]; S9 Mix(−), 2500 μg/plate, Phosphate
  number of back mutation, single plates: 6 colonies/plate and 5 colonies/plate
[4]; S9 Mix(−), 5000 μg/plate
  number of back mutation, mean (in parentheses): (7) colonies/plate
[5]; S9 Mix(+), 313 μg/plate
  number of back mutation, mean (in parentheses): (5) colonies/plate
[5]; S9 Mix(+), 625 μg/plate
  number of back mutation, mean (in parentheses): (6) colonies/plate
[5]; S9 Mix(+), 1250 μg/plate
  number of back mutation, mean (in parentheses): (6) colonies/plate
  number of back mutation, single plates: 6 colonies/plate
[5]; S9 Mix(+), 2500 μg/plate
  number of back mutation, mean (in parentheses): (4) colonies/plate
[5]; S9 Mix(+), 2500 μg/plate, Phosphate
  number of back mutation, single plates: 5 colonies/plate and 3 colonies/plate
[5]; S9 Mix(+), 5000 μg/plate
  number of back mutation, mean (in parentheses): (4) colonies/plate
[5]; S9 Mix(−), 313 μg/plate
  number of back mutation, mean (in parentheses): (2) colonies/plate
[5]; S9 Mix(−), 625 μg/plate
  number of back mutation, mean (in parentheses): (3) colonies/plate
[5]; S9 Mix(−), 1250 μg/plate
  number of back mutation, mean (in parentheses): (3) colonies/plate
[5]; [6]
  number of back mutation, single plates: 4 colonies/plate and 2 colonies/plate
[5]; S9 Mix(−), 2500 μg/plate
  number of back mutation, mean (in parentheses): (2) colonies/plate
  number of back mutation, single plates: 2 colonies/plate
[5]; S9 Mix(−), 5000 μg/plate
  number of back mutation, mean (in parentheses): (3) colonies/plate
